These results are taken from ChEMBL document CHEMBL1201862, “PubChem BioAssay data set” (2004).

Structures are written as SMILES.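 Five concentrations, 48 hours, 96-well plates. GI50 is the concentration that inhibits growth by half.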 Active and inactive are the calls of the source. Rule as the data show it: active = GI50 up to about 1.1 µM and inactive = higher.

What all share (test): DTP human tumour cell line panel, 48 h
Experiment [1] has as its system LXFL 529.
Experiment [2] deals with A498.
In experiment [3] the test system is UACC-257.
For experiment [4], the system named is IGROV-1.
For experiment [5], the system named is Malme-3M.
Experiment [6] relates to UO-31.
In experiment [7] the test system is NCI-H460.
Experiment [8] deals with HT-29.
Experiment [9] concerns HOP-62.
Experiment [10] deals with M14.
Experiment [11] relates to HCT-116.
Experiment [12] has as its system M19-MEL.
Experiment [13] concerns HCT-15.
For experiment [14], the system named is SW-620.
In experiment [15] the test system is SNB-75.
For experiment [16], the system named is DMS-273.
The test system of experiment [17] is NCI-H522.
Experiment [18] deals with OVCAR-5.
In experiment [19] the test system is CAKI-1.

For the molecule `C[C@]12CCC3c4ccc(OC(=O)c5ccccc5)cc4CC[C@H]3C1CC[C@@H]2OC(=O)C12OC1CCC2=O` (stereo not given in full), the GI50 is 1.91 µM (inactive) in experiment [1]; 6.04 µM (inactive) in experiment [2]; 5.81 µM (inactive) in experiment [3]; 4.63 µM (inactive) in [4]; 5.85 µM (inactive) in experiment [5]; 5.75 µM (inactive) in experiment [6]. The GI50 in experiment [7] is 4.26 µM (inactive); in [8], 3.34 µM (inactive); in experiment [9], 6.21 µM (inactive); in experiment [10], 5.79 µM (inactive); in experiment [11] it was 3.03 µM (inactive); in [12], 5.96 µM (inactive). Further, the GI50 in experiment [13] was 5.55 µM; in [14], 2.64 µM (inactive); in experiment [15], 13.7 µM (inactive); in experiment [16], 5.01 µM (inactive); in experiment [17], 2.31 µM (inactive); in experiment [18], 8.38 µM (inactive).
Turning to `CCOC(=O)N1CCc2cc(OC)c(OC)cc2/C1=C\c1ccc(OC)c(OC)c1`, the GI50 in [1] was 29.5 µM (inactive); in [2], 23.2 µM (inactive); in experiment [3] it was 23.6 µM (inactive); in experiment [4] it was 45.5 µM (inactive); in experiment [5], 20.2 µM (inactive); in [6] it was 21 µM (inactive). Also, the GI50 is 19 µM (inactive) in [8]; 41.6 µM (inactive) in experiment [9]; > 10 µM (inactive) in [10]; 21.9 µM (inactive) in [11]; 26.1 µM (inactive) in experiment [12]; 31 µM in experiment [13]. In addition, the GI50 in experiment [14] is 32.7 µM (inactive); in experiment [15], 27 µM (inactive); in experiment [16] it was 25.5 µM (inactive); in [17], 25 µM (inactive); in experiment [18] it was 38.3 µM (inactive).
Consider `CC1CC(=O)C2CC(CO)=CCCC2C1(C)CC/C(=C/CO)CO` (stereo not given), for which the GI50 in experiment [1], in experiment [2], in [3], in experiment [19], in experiment [4] and in [5] was > 100 µM (inactive) each time. The GI50 in experiment [6], in [7], in experiment [8], in [10], in [11] and in [12] was > 100 µM (inactive) in each case. Further, the GI50 in [13] was over 100 µM; in experiment [14], > 100 µM (inactive); in [15], > 100 µM (inactive); in experiment [16], > 100 µM (inactive); in experiment [17], 87.9 µM (inactive).
As to `CCOc1ccc(NC(=O)/C(=C\c2ccc(C)cc2)C(C)=O)cc1`, the GI50 in experiment [1], in experiment [2], in experiment [3], in experiment [19], in experiment [4] and in experiment [5] was > 100 µM (inactive) each time. Moreover, the GI50 in experiment [6], in experiment [8], in [9], in experiment [10], in experiment [11] and in [12] was > 100 µM (inactive) each time. The GI50 in [13] was over 100 µM; in experiment [14], > 100 µM (inactive); in experiment [15] it was > 100 µM (inactive); in [16], > 100 µM (inactive); in [17] it was > 100 µM (inactive); in experiment [18], > 100 µM (inactive).
